According to patent publication US10342796B2, “Acrylanilide derivative, preparation method, and applications thereof in pharmacy” (Ancureall Pharmaceutical (Shanghai) Co., Ltd., priority 2015, dated 2019):
Where two headings read alike, the source gives them in different places.

What was measured:
Test in all cases: Growth inhibition GI50 in vitro (CCK8/MTT, 72 h)
[1] = system: NCI-H1781 (HER2 exon 20 G776VC mutation); assay type: cell-based; conditions: Homo sapiens, NCI-H1781; Table 16; 1000 nM to 0.03 nM serial dilution; read-out: GI50 H1781 (HER2 G776VC)
Protocol: (§1) Human lung adenocarcinoma cell line Calu-3 (ATCC) was cultured with 1×MEM complete medium (10% FBS, 1% double-antibiotics, 1% NEAA (Gibco), 2 mM glutamine and 1 mM of sodium pyruvate). Human breast cancer cell line SK-BR-3 was cultured with McCOY'S5A complete medium (10% FBS). Human colon cancer cell line SNU1040 (HER2 V777M positive) (ATCC) and human bronchoalveolar adenocarcinoma cell line NCI-H1781 (expressing HER2 exon 20 G776VC mutation) (ATCC) were cultured with 1×RPMI1640 complete medium (10% FBS), respectively.
(§2) Adherent cells were digested with 0.25% pancreatin-EDTA (Gibco). The suspension cells were collected by centrifugation. The supernatant was discard and the cell pellet was resuspended and counted. Different cell concentrations (5˜10×10^4 cells/mL) were prepared according to the growth cycle of each cell line and then seeded on a 96-well plate (Corning), 100 μL/well. The cells were incubated over night at 37° C., 5% CO2. The compounds were added to the cells on the second day with 2 wells in parallel. The final concentration of organic solvent shall not exceed 1%. The cells were continually incubated for 72 h, and then subjected to MTT assay.
(§3) The present compounds and the reference compounds were dissolved with DMSO (Sigma), respectively. […] The storage concentration of compounds was 10 mM and kept at −20° C. They were diluted by 2 times or 10 times with serial dilution before using.
(§4) Dojindo CCK8 reagent kit was used as MTT assay. […] FC meter was used as microplate reader.
(§5) Adherent cell culture medium was discard and immediately replaced with fresh prepared medium which contains 10% CCK8 reagent (100 μL/well). For the suspension cells, CCK8 was directly added to 10% of the final concentration. The cells were continually incubated for 1˜4 h. When the color of control wells turned to dark yellow, the absorption value was measured at OD450 nm. The cell growth rate was calculated according to the following formula: cell growth rate (%)=100*(T−T0)/(C−T0), T=optical density of drug treatment cell well—optical density of blank control well; T0=optical density of cell well before drug treatment—optical density of blank control well; C=optical density of cell well of solvent control group—optical density of blank control well. The concentration value of 50% inhibition of cell growth (GI50) was calculated. The experiment was independently repeated 1˜3 times, and subject to biological statistical analysis.
(§6) Furthermore, the present compounds (99, 136, 205, 211, 212, 213, 216, 229, 230, 231, 232, 233 and 236) were selected to carry out growth inhibition test for HER2/ERBB2 gene amplified or high expressed or mutant tumor cells. Afatinib and AZD9291 were used for references as second- and third-generation inhibitors of EGFR.
(§7) Each compound started at 1000 nM as an initial concentration and was diluted by 2 times with serial dilution to 0.03 nM. The GI50 value of each compound was calculated according to Test Example 1.3.

[2] = system: SNU1040 (HER2 V777M positive); assay type: cell-based; conditions: Homo sapiens; Table 16; 1000 nM to 0.03 nM serial dilution; read-out: GI50 SNU-1040 (HER2 V777M)
Protocol: as §1, §2, §3, §4, §5, §6, §7

H292 (EGFR WT) = assay type: cell-based; conditions: Homo sapiens, NCI-H292; Table 15; 1000 nM to 0.03 nM serial dilution; read-out: GI50 H292 (EGFR WT)
Excerpt: EGFR wild type cell lines: human epidermal cancer cell line A431 (EGFR WT, amplification and high expression, from Shanghai Cell Bank of Chinese Academy of Sciences and ATCC), NSCLC cell lines NCI-H460 (EGFR WT, Kras G61H and PI3KCA E545K mutants, ATCC) and NCI-H1299 (EGFR WT, ATCC), melanoma cell line A375 (EGFR WT and BRAF V600E mutant, from Shanghai Cell Bank of Chinese Academy of Sciences, ATCC), human lung cancer cell line NCI-H292 (EGFR WT, from human lung mucoepidermoid carcinoma/lymphatic metastasis, purchased from Shanghai Cell Bank of Chinese Academy of Sciences) were cultured with 1×RPMI1640 complete medium which was supplement with 10% FBS. NSCLC cell line A549 (EGFR WT and Kras G12S mutant, from Shanghai Cell Bank of Chinese Academy of Sciences) was cultured with 1×Ham'S F12K complete medium which was supplement with 10% FBS, 1% double-antibiotics and 2 mM glutamine.
as §2, with “The” for “Adherent cells were digested with 0.25% pancreatin-EDTA (Gibco). The”
as §3, §4
as §5, with “The concentration value of 50% inhibition of cell growth (GI50) was calculated.” left out

H1975 (EGFR L858R/T790M) = assay type: cell-based, human; conditions: Homo sapiens, NCI-H1975
PC-9 (EGFR dE746-A750) = assay type: cell-based, human; conditions: Homo sapiens
Calu-3 (Her2 amp) = assay type: cell-based; conditions: Homo sapiens, Calu-3; Table 16; 1000 nM to 0.03 nM serial dilution; read-out: GI50 Calu3 (HER2 amp)
Protocol: as §1
as §2, with “The” for “Adherent cells were digested with 0.25% pancreatin-EDTA (Gibco). The”
as §3, §4
as §5, with “The concentration value of 50% inhibition of cell growth (GI50) was calculated.” left out

N87 (HER2 Amp) = assay type: cell-based, human; conditions: Homo sapiens
[3] = system: SW48 (EGFR G719S positive); assay type: cell-based; conditions: Homo sapiens, SW48; Table 15; 1000 nM to 0.03 nM serial dilution; read-out: GI50 SW48 (EGFR G719S)
Protocol: PC-9ER is an acquired Erlotinib resistance cell line of PC-9 cells developed by the investor. […] The four cell lines above were cultured with 1×RPMI1640 complete medium (supplement with 10% FBS). Human colon cancer cell line SW48 (EGFR G719S positive, ATCC). was cultured with L15 complete medium (10% FB S).
as §2, with “The” for “Adherent cells were digested with 0.25% pancreatin-EDTA (Gibco). The”
as §3, §4
as §5, with “The concentration value of 50% inhibition of cell growth (GI50) was calculated.” left out
Each compound started at 1000 nM as an initial concentration and was diluted by […] with serial dilution to 0.03 nM.

A549 (EGFR WT) = assay type: cell-based, human; conditions: Homo sapiens, A549

GI50 [1]: 0.87 nM | GI50 [2]: 7.21 nM | GI50 (H292 (EGFR WT)): > 1000 nM | GI50 (H1975 (EGFR L858R/T790M); Table 13, 72 h, read-out: Range of GI50 H1975 (EGFR L858R/T790M)): 10 to 100 nM | GI50 (H1975 (EGFR L858R/T790M); Table 15, 1000 nM to 0.03 nM serial dilution, read-out: GI50 H1975 (EGFR L858R/T790M)): 19.2 nM | GI50 (PC-9 (EGFR dE746-A750); Table 13, 72 h, read-out: Range of GI50 PC-9 (EGFR dE746-A750)): < 10 nM | GI50 (PC-9 (EGFR dE746-A750); Table 15, 1000 nM to 0.03 nM serial dilution, read-out: GI50 PC-9 (EGFR dE746-A750)): 0.49 nM | GI50 (Calu-3 (Her2 amp)): 0.98 nM | GI50 [3]: 4.19 nM | GI50 (A549 (EGFR WT); Table 13, 72 h, read-out: Range of GI50 A549 (EGFR WT)): > 1000 nM | GI50 (A549 (EGFR WT); Table 15, 1000 nM to 0.03 nM serial dilution, read-out: GI50 A549 (EGFR WT)): > 1000 nM
SMILES: C=CC(=O)Nc1cc(Nc2cc(Nc3cc(C(F)(F)F)ccc3OC)ncn2)c(OC)cc1N(C)CCN(C)C [Compound 233, N-(5-(6-(2-methoxyl-5-trifluoromethyl-phenylamino)-pyrimidin-4-yl-amino)-2-((2-dimethylamino-ethyl)-methyl-amino)-4-methoxyl-phenyl)-acrylamide]
GI50 (N87 (HER2 Amp); Table 13, 72 h, read-out: Range of GI50 N87 (HER2 Amp)): < 10 nM | GI50 (N87 (HER2 Amp); Table 16, 1000 nM to 0.03 nM serial dilution, read-out: GI50 N87 (HER2 amp)): 0.95 nM
